# The NIST ThermoML archive (doi:10.1016/j.jct.2016.07.029)
# Numbers after ± are expanded uncertainties.
# Assay: excess molar enthalpy (molar enthalpy of mixing); xn = mol fraction of the nth substance listed
# Conditions: 100 kPa, Liquid, Calvet calorimetry
compound,measurement,setting,value
[Zn] [zinc] + [Ga],excess molar enthalpy,"722 K, x1 = 0.0966",0.125 ± 0.0406 kcal/mol
same,excess molar enthalpy,"722 K, x1 = 0.132",0.161 ± 0.0229 kcal/mol
same,excess molar enthalpy,"722 K, x1 = 0.1679",0.205 ± 0.0406 kcal/mol
same,excess molar enthalpy,"722 K, x1 = 0.237",0.272 ± 0.0406 kcal/mol
same,excess molar enthalpy,"722 K, x1 = 0.2478",0.255 ± 0.0229 kcal/mol
same,excess molar enthalpy,"722 K, x1 = 0.2796",0.304 ± 0.0406 kcal/mol
same,excess molar enthalpy,"722 K, x1 = 0.3239",0.337 ± 0.0406 kcal/mol
same,excess molar enthalpy,"722 K, x1 = 0.3424",0.323 ± 0.0232 kcal/mol
same,excess molar enthalpy,"722 K, x1 = 0.3664",0.357 ± 0.0406 kcal/mol
same,excess molar enthalpy,"722 K, x1 = 0.4104",0.377 ± 0.0406 kcal/mol
same,excess molar enthalpy,"722 K, x1 = 0.4155",0.361 ± 0.0232 kcal/mol
same,excess molar enthalpy,"722 K, x1 = 0.4432",0.385 ± 0.0406 kcal/mol
same,excess molar enthalpy,"722 K, x1 = 0.4746",0.378 ± 0.0232 kcal/mol
same,excess molar enthalpy,"722 K, x1 = 0.4747",0.393 ± 0.0406 kcal/mol
same,excess molar enthalpy,"722 K, x1 = 0.5057",0.402 ± 0.0406 kcal/mol
same,excess molar enthalpy,"722 K, x1 = 0.5202",0.377 ± 0.0232 kcal/mol
same,excess molar enthalpy,"722 K, x1 = 0.5368",0.404 ± 0.0406 kcal/mol
same,excess molar enthalpy,"722 K, x1 = 0.5565",0.378 ± 0.0232 kcal/mol
same,excess molar enthalpy,"722 K, x1 = 0.562",0.406 ± 0.0406 kcal/mol
same,excess molar enthalpy,"722 K, x1 = 0.5901",0.379 ± 0.0232 kcal/mol
same,excess molar enthalpy,"722 K, x1 = 0.6188",0.375 ± 0.0232 kcal/mol
same,excess molar enthalpy,"722 K, x1 = 0.6444",0.37 ± 0.0232 kcal/mol
same,excess molar enthalpy,"722 K, x1 = 0.6659",0.363 ± 0.0232 kcal/mol
same,excess molar enthalpy,"722 K, x1 = 0.6846",0.357 ± 0.0232 kcal/mol
same,excess molar enthalpy,"722 K, x1 = 0.761",0.326 ± 0.0232 kcal/mol
same,excess molar enthalpy,"722 K, x1 = 0.8068",0.305 ± 0.0227 kcal/mol
same,excess molar enthalpy,"722 K, x1 = 0.8495",0.256 ± 0.0225 kcal/mol
same,excess molar enthalpy,"722 K, x1 = 0.9004",0.182 ± 0.0225 kcal/mol
same,excess molar enthalpy,"722 K, x1 = 0.948",0.102 ± 0.0225 kcal/mol
same,excess molar enthalpy,"923 K, x1 = 0.07739",0.092 ± 0.0454 kcal/mol
same,excess molar enthalpy,"923 K, x1 = 0.1307",0.149 ± 0.0287 kcal/mol
same,excess molar enthalpy,"923 K, x1 = 0.1593",0.182 ± 0.0454 kcal/mol
same,excess molar enthalpy,"923 K, x1 = 0.2353",0.252 ± 0.0287 kcal/mol
same,excess molar enthalpy,"923 K, x1 = 0.2736",0.284 ± 0.0454 kcal/mol
same,excess molar enthalpy,"923 K, x1 = 0.3154",0.313 ± 0.0287 kcal/mol
same,excess molar enthalpy,"923 K, x1 = 0.3262",0.315 ± 0.0454 kcal/mol
same,excess molar enthalpy,"923 K, x1 = 0.3711",0.346 ± 0.0454 kcal/mol
same,excess molar enthalpy,"923 K, x1 = 0.3774",0.352 ± 0.0287 kcal/mol
same,excess molar enthalpy,"923 K, x1 = 0.4101",0.361 ± 0.0454 kcal/mol
same,excess molar enthalpy,"923 K, x1 = 0.4408",0.38 ± 0.0287 kcal/mol
same,excess molar enthalpy,"923 K, x1 = 0.4434",0.384 ± 0.0454 kcal/mol
same,excess molar enthalpy,"923 K, x1 = 0.4743",0.395 ± 0.0454 kcal/mol
same,excess molar enthalpy,"923 K, x1 = 0.4896",0.398 ± 0.0287 kcal/mol
same,excess molar enthalpy,"923 K, x1 = 0.4981",0.403 ± 0.0454 kcal/mol
